The NIST ThermoML archive (doi:10.1016/j.jct.2005.03.013)

Key:
[1] = for viscosity: 101.33 kPa, Liquid
[2] = molar heat capacity at constant pressure; settings: 101.33 kPa, Liquid, Large sample (1 g) DSC

CCOS(=O)(=O)[O-].CC[n+]1cccc(C)c1 [1-ethyl-3-methylpyridinium ethylsulfate]
Settings	Glass transition temperature [°C]	molar heat capacity at constant pressure [J/K/mol]	viscosity [mPa·s]
[1], 283 K	–	–	414
[1], 293 K	–	–	204
[1], 298 K	–	–	150
[1], 303 K	–	–	114
[1], 313 K	–	–	70
[1], 323 K	–	–	45
[1], 333 K	–	–	32
[1], 343 K	–	–	23
[1], Glass	-71	–	–
[2], 298 K	–	389	–
[2], 323 K	–	402	–
